Ends that are not written are not given here. PEG = not defined here
What was measured:
Type in all cases: cell-based
[1] = system: human prostate cancer cells (22RV1); assay: scratch assay, migration of 22RV1 cells; conditions: 22RV1, 10 μM, 48 hours; control group 25.41 ± 5.01
Experimental: (§1) In the scratch assay, the cell migration rate was negatively correlated with the inhibitory effect of the drug component on tumor cell migration ability. The cell migration inhibition experiment was described as follows: tumor cells were cultured in vitro, cells in logarithmic growth phase were collected and seeded evenly in a 24-well plate at a density of 1-2×10^5 cells/well; the cells were cultured in a cell incubator until a monolayer was formed; a scratch tool was used to make a “-” (straight) scratch on the monolayer of cells; the cells were washed 1-3 times with PBS, and a medium (with 2% fetal bovine serum) containing specific test components was added to the culture. Experimental grouping: PBS control group; polypeptide or derivative thereof treatment group (N1-N54), 10 μM. Three independent parallel wells were set up in each group, and the cells were cultured continuously in a cell incubator for 48 hours. […] At least 3 representative images for each well were taken. ImageJ software was used to count the migration distance of the cells, and the cell migration rate was calculated as: cell migration rate (%)=(width of original scratch−width of current scratch)/width of original scratch×100.
This example was a scratch assay to evaluate the inhibitory effect of the polypeptide or derivative thereof (N1-N54) on the migration ability of human prostate cancer cells (22RV1). The experimental method was as described in Example 2.

[2] = system: human liver adenocarcinoma cells (SK-HEP-1); assay: transwell invasion assay, SK-HEP-1 cells; conditions: SK-HEP-1 transwell invasion, 10 μM, 24 hours; control group 767 ± 91
Excerpt: (§2) The Transwell chamber system was used in the transwell cell invasion experiment. The chamber has an upper layer and a lower layer, which are separated by an artificial semipermeable membrane in the middle. The upper surface of the semipermeable membrane is coated with a layer of artificial matrigel to simulate extracellular matrix. Cells that have invaded through the matrigel and semi-permeable membrane will attach to the lower surface of the semi-permeable membrane. The invasion ability is evaluated by counting the number of cells on the lower surface of the semi-permeable membrane. The number of cells that have invaded is negatively correlated with the inhibitory effect of the drug on the invasion ability of the tumor cells. Transwell invasion assay was performed as follows: tumor cells were cultured in vitro, cells in logarithmic growth phase were collected, and cell suspension was prepared with fresh serum-free medium at a density of 2-3×10^5 cells/mL. Cells were inoculated, 100 μL/well cell suspension (serum-free medium) in the upper chamber and 600 μL/well complete culture medium in the lower chamber. After incubated in 37° C., 5% CO2 incubator for 4-5 hours, serum-free medium (100 μL/well) was added to the control group, and serum-free medium containing polypeptide or derivative thereof (N1-N54) was added to the upper chamber of the treatment group (100 μL/well), the final concentration of the peptide or derivative thereof in the upper chamber was 10 μM. The cells were incubated continuously for 24 hours, and then fixed with methanol and stained with crystal violet. Images were taken under a microscope and the number of invaded cells was counted with ImageJ.
This example was a transwell cell invasion experiment to evaluate the inhibitory effect of the polypeptide or derivative thereof (N1-N54) on the invasion ability of human liver adenocarcinoma cells (SK-HEP-1). The experimental method was as described in Example 4.

[3] = system: human pancreatic cancer cells (PANC-1); assay: scratch assay, migration of PANC-1 cells; conditions: PANC-1, 10 μM, 48 hours; control group 66.65 ± 3.37
Experimental: as §1
This example was a scratch assay to evaluate the inhibitory effect of the polypeptide or derivative thereof (N1-N54) on the migration ability of human pancreatic cancer cells (PANC-1). The experimental method was as described in Example 2.

[4] = system: human melanoma cells (A375); assay: scratch assay, migration of A375 cells; conditions: A375, 10 μM, 48 hours; control group 44.03 ± 6.21
Experimental: as §1
This example was a scratch assay to evaluate the inhibitory effect of the polypeptide or derivative thereof (N1-N54) on the migration ability of human melanoma cells (A375). The experimental method was as described in Example 2.

[5] = system: human breast cancer cells (MDA-MB-231); assay: scratch assay, migration of MDA-MB-231 cells; conditions: MDA-MB-231, 10 μM, 48 hours; control group 36.19 ± 5.15
Experimental: as §1
This example was a scratch assay to evaluate the inhibitory effect of the polypeptide or derivative thereof (N1-N54) on the migration ability of human breast cancer cells (MDA-MB-231). The experimental method was as described in Example 2.

[6] = system: human pharyngeal squamous-cell carcinoma cells (Fadu); assay: scratch assay, migration of Fadu cells; conditions: 10 μM, 48 hours, control group 28.76 ± 4.08
Experimental: as §1
This example was a scratch assay to evaluate the inhibitory effect of the polypeptide or derivative thereof (N1-N54) on the migration ability of human pharyngeal squamous-cell carcinoma cells (Fadu). The experimental method was as described in Example 2.

[7] = system: human colon cancer cells (HCT-116); assay: scratch assay, migration of HCT-116 cells; conditions: HCT-116, 10 μM, 48 hours; control group 47.78 ± 6.07
Experimental: as §1
This example was a scratch assay to evaluate the inhibitory effect of the polypeptide or derivative thereof (N1-N54) on the migration ability of human colon cancer cells (HCT-116). The experimental method was as described in Example 2.

[8] = system: human liver adenocarcinoma cells (SK-HEP-1); assay: transwell migration assay, SK-HEP-1 cells; conditions: SK-HEP-1 transwell migration, 10 μM, 24 hours; control group 1 782 ± 108, control group 2 768 ± 86
Experimental: as §2, with “migration” for “invasion”, “middle.” for “middle. The upper surface of the semipermeable membrane is coated with a layer of artificial matrigel to simulate extracellular matrix.”, “migrated” for “invaded”, “the” for “the matrigel and”
This example was a transwell cell migration experiment to evaluate the inhibitory effect of the polypeptide or derivative thereof (N1-N54) on the migration ability of human liver adenocarcinoma cells (SK-HEP-1). The experimental method was as described in Example 3.

Substance | Migration rate (%) (mean ± SD, P) [1] | Number of cells (mean ± SD, P), invaded cells [2] | Migration rate (%) (mean ± SD, P) [3] | Migration rate (%) (mean ± SD, P) [4] | Migration rate (%) (mean ± SD, P) [5] | Migration rate (%) (mean ± SD, P) [6] | Migration rate (%) (mean ± SD, P) [7] | Number of cells (mean ± SD, P), migrated cells [8]
N19: SEQ ID NO: 1 with deletion of positions 1-5 and 15-18 and addition of two amino acids at the carboxyl terminal (LAKENVTQDRC) | 5.36 ± 1.6,** % | 348 ± 40,*** | 19.76 ± 7.14,*** % | 12.93 ± 3.34,*** % | 15.23 ± 3.54,* % | 17.23 ± 3.53,* % | 9.80 ± 2.62,*** % | 82 ± 6,****
N20: SEQ ID NO: 1 with addition of one amino acid at the amino terminal and deletion of position 18 (RYRVRFLAKENVTQDAED) | 4.88 ± 1.48,** % | 242 ± 22,**** | 41.56 ± 6.68,* % | 14.61 ± 3.12,*** % | 20.18 ± 3.38,* % | 15.21 ± 4.90,* % | 8.17 ± 1.07,*** % | 299 ± 35,****
N21: SEQ ID NO: 1 with deletion of positions 1-5 and 15-18 and addition of one amino acid at the amino terminal (SLAKENVTQD) | 12.79 ± 3.06,* % | 356 ± 60,*** | 10.54 ± 9.03,*** % | 8.29 ± 3.50,*** % | 19.95 ± 5.47,* % | 16.87 ± 6.77,* % | 12.85 ± 3.12,*** % | 34 ± 7,****
N22: SEQ ID NO: 1 with substitution A7R, deletion of three amino acids at the amino terminal and of positions 15-18 (RFLRKENVTQD) | 6.10 ± 2.72,** % | 430 ± 51,** | 11.44 ± 8.52,*** % | 5.12 ± 3.69,*** % | 16.94 ± 3.17,* % | 15.11 ± 4.99,* % | 7.78 ± 3.07,*** % | 42 ± 17,****
N23: SEQ ID NO: 1 with substitution A7R, deletion of position 11 and of positions 15-18 (YRVRFLRKENTQDAED) | 5.7 ± 3.23,** % | 456 ± 45,** | 14.16 ± 8.36,*** % | 11.13 ± 2.15,*** % | 14.39 ± 2.33,** % | 16.93 ± 3.67,* % | 13.08 ± 2.64,*** % | 276 ± 24,****
N24: SEQ ID NO: 1 with substitution A7R, deletion of positions 1-2 and of position 18 (VRFLRKENVTQDAED) | 8.44 ± 1.63,** % | 332 ± 30,*** | 13.99 ± 7.57,*** % | 15.79 ± 4.16,** % | 20.97 ± 3.37,* % | 14.07 ± 5.12,* % | 12.14 ± 2.49,*** % | 265 ± 24,****
N25: SEQ ID NO: 1 with substitution N18R and addition of two amino acids at the carboxyl terminal (YRVRFLAKENVTQDAEDRCT) | 13.02 ± 2.27,* % | 411 ± 30,*** | 25.36 ± 7.32,*** % | 17.67 ± 2.41,** % | 12.93 ± 4.38,** % | 9.89 ± 2.47,*** % | 18.70 ± 2.39,** % | 58 ± 15,****
N26: SEQ ID NO: 1 with substitution A15R, addition of one amino acid at the amino terminal and one at the carboxyl terminal (FYRVRFLAKENVTQDREDNC) | 11.42 ± 2.08,* % | 371 ± 27,*** | 26.65 ± 6.37,*** % | 12.23 ± 2.48,*** % | 19.02 ± 5.06,* % | 13.70 ± 4.57,** % | 9.81 ± 2.92,*** % | 68 ± 19,****
N27: SEQ ID NO: 1 with addition of one amino acid at the carboxyl terminal and PEG modification at the carboxyl terminal (YRVRFLAKENVTQDAEDNC-{PEG}; reading uncertain) | 14.76 ± 2.79,* % | 369 ± 52,*** | 27.19 ± 7.04,*** % | 12.52 ± 3.78,*** % | 9.62 ± 3.01,*** % | 15.99 ± 3.96,* % | 24.14 ± 3.00,** % | 469 ± 56,**
